Values joined by “and” are separate entries in the source; they are usually repeats but may differ in a detail not shown here. Identical values can stand only once.
System: PDC tumor spheroids with HUVEC/MSC, viability
Assay: Anticancer human tumor 439559-082-T-J2-PDC patient-derived colon adenocarcinoma cell line growth inhibition [TAK]
Details: for viability, T/C: stronger effect = lower value; active = viability on the fitted dose curve at most 10% of control; inactive = the rest
Text: Combinatorial screen of targeted agents with TAK-243 and ipatasertib in multi-cell type tumor spheroids
A high-throughput screen of multi-cell type tumor spheroids was designed to identify active combinations of targeted small molecules and TAK-243 or ipatasertib. Complex spheroids include a stromal component modeled by human endothelial cells (HUVEC) and fibroblasts modeled by human mesenchymal stem cells (MSCs). The concentration ranges selected for each drug and investigational agent were based upon clinically achievable concentrations if the clinical Cmax of the agent was known.
Compounds. The drugs and investigational agents: TAK-243 (785004), ipatasertib (767898), everolimus (733504), selumetinib (741078), bortezomib (756655), trametinib (758246), ixazomib (758254), vemurafenib (761431), dabrafenib (764134), sapanisertib (764658), alpelisib (765974), and copanlisib (816437), were obtained from the National Cancer Institute (NCI) Developmental Therapeutics Program Chemical Repository. The FDA-approved anticancer drug set is available from the NCI Developmental Therapeutics Program. […] The stock solutions were prepared in dimethyl sulfoxide (DMSO, Sigma-Aldrich, St. Louis, MO, cat. D2650) at 800-fold the tested concentration and stored at -70 degrees C prior to their use. All drugs and investigational agents were tested over a range starting from a high concentration at or near the clinical Cmax and decreasing in half-log increments. If the clinical Cmax for an agent had not been determined, the highest concentration tested was 10 microM.
NCI60 Cell Culture. NCI60 cell lines were obtained from the NCI Developmental Therapeutics Program Tumor Repository. For each lot of cells, the Repository performed Applied Biosystems AmpFLSTR Identifiler testing with PCR amplification to confirm consistency with the published Identifier STR profile for each cell line. Cells were kept in continuous culture for no more than 20 passages. The optimal seeding densities for each of the cell lines at each time point assessed were determined prior to performing the concentration response studies. Briefly, the NCI60 human tumor lines were grown as monolayers in RPMI 1640 medium supplemented with 10% FBS and 2 mmol/L L-glutamine.
An additional 2 lines were from the NCI60 cell line panel including melanomas, MALME-3M and SK-MEL-2. Pooled donor human umbilical vein endothelial cells (HUVEC, Lonza, cat. CC-2519) and human mesenchymal stem cells (hMSC, Lonza, cat. PT-2501) were purchased from Lonza (Walkersville, MD).
PDMR cell lines were grown in complete medium (DC medium): Dulbecco's modified Eagle's medium (DMEM)/F12 supplemented with 5% fetal bovine serum (FBS), 2 mM L-glutamine, 100 U/mL penicillin and 100 µg/ml streptomycin, 0.4 µg/ml hydrocortisone, 10 ng/ml epidermal growth factor (EGF) recombinant human protein, 24 µg/mL adenine, and 0.1 mg/mL primocin. During culture from frozen stock vials, PDMR cells were cultured in the same medium containing 10 µM Y-27632 (see Table 3). The PDCs were cultured in complete DMEM/F12 media without 10 microM Y-27632 dihydrochloride for at least two passages prior to the screen. The pooled donor HUVEC and hMSC were cultured in endothelial cell growth medium 2 (PromoCell, Heidelberg, Germany, cat. C-22011) and mesenchymal stem cell growth medium 2 (PromoCell, cat. C-28009), respectively. For all experiments, HUVEC and hMSC were used at passages </=5.
For the pre-screen, cell seeding densities were determined from a titration spanning the range from 5,000 to 313 cells per well. The mct-spheroids including 60% malignant cells, 25% HUVEC and 15% MSC dispensed as a mixture into U-bottom Ultra-Low Attachment 384-well plates (Corning, NY)
High-throughput Drug Combination Screening.
Prior to their inoculation into 384-well plates, malignant cells, HUVEC, and hMSC were removed from T flasks using TrypLE express (Thermo Fisher Scientific, cat. 12605036) and harvested by centrifugation for 5 min at 233 x g. […]

[1] = curve of first compound, second compound 0.3 µM
[2] = curve of first compound, second compound 0.949 µM
[3] = curve of first compound, second compound 3 µM
[4] = curve of first compound, second compound 9.49 µM
[5] = curve of first compound, second compound 30 µM
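Note: spheroids exposed to drugs for seven days before readout.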

Cn1cnc2c(F)c(Nc3ccc(Br)cc3Cl)c(C(=O)NOCCO)cc21
inactive: viability, T/C (compound 0.00949 µM) 101% and 110% | viability, T/C (compound 0.03 µM) 90.2% and 101% | viability, T/C (compound 0.0949 µM) 83.1% and 76.7% | viability, T/C (compound 0.3 µM) 71.4% and 79.2% | viability, T/C (compound 0.949 µM) 74.4% and 74.2% | viability, T/C (compound 3 µM) 65.5% and 64.2%
> 3 µM: IC50 (curve of compound)

COc1c(OCCCN2CCOCC2)ccc2c3n(c(=NC(=O)c4cnc(N)nc4)nc12)CCN3 + CC(C)NCC(C(=O)N1CCN(c2ncnc3c2C(C)CC3O)CC1)c1ccc(Cl)cc1
> 1 µM: IC50 [1] | IC50 [2] | IC50 [3] | IC50 [4] | IC50 [5]
inactive: viability, T/C (second compound 0.3 µM, first compound 0.00316 µM) 98.6% | viability, T/C (second compound 0.3 µM, first compound 0.01 µM) 89.5% | viability, T/C (second compound 0.3 µM, first compound 0.0316 µM) 71.3% | viability, T/C (second compound 0.3 µM, first compound 0.1 µM) 73.3% | viability, T/C (second compound 0.3 µM, first compound 0.316 µM) 61.8% | viability, T/C (second compound 0.3 µM, first compound 1 µM) 66.9% | viability, T/C (second compound 0.949 µM, first compound 0.00316 µM) 98.5% | viability, T/C (second compound 0.949 µM, first compound 0.01 µM) 91.5% | viability, T/C (second compound 0.949 µM, first compound 0.0316 µM) 76.2% | viability, T/C (second compound 0.949 µM, first compound 0.1 µM) 72.4% | viability, T/C (second compound 0.949 µM, first compound 0.316 µM) 66.8% | viability, T/C (second compound 0.949 µM, first compound 1 µM) 65.8% | viability, T/C (second compound 3 µM, first compound 0.00316 µM) 85.1% | viability, T/C (second compound 3 µM, first compound 0.01 µM) 88.4% | viability, T/C (second compound 3 µM, first compound 0.0316 µM) 75.5% | viability, T/C (second compound 3 µM, first compound 0.1 µM) 71.3% | viability, T/C (second compound 3 µM, first compound 0.316 µM) 66.8% | viability, T/C (second compound 3 µM, first compound 1 µM) 69.7% | viability, T/C (second compound 9.49 µM, first compound 0.00316 µM) 90.6% | viability, T/C (second compound 9.49 µM, first compound 0.01 µM) 80.8% | viability, T/C (second compound 9.49 µM, first compound 0.0316 µM) 80.9% | viability, T/C (second compound 9.49 µM, first compound 0.1 µM) 73.7% | viability, T/C (second compound 9.49 µM, first compound 0.316 µM) 67.8% | viability, T/C (second compound 9.49 µM, first compound 1 µM) 70.9% | viability, T/C (second compound 30 µM, first compound 0.00316 µM) 83.9% | viability, T/C (second compound 30 µM, first compound 0.01 µM) 79% | viability, T/C (second compound 30 µM, first compound 0.0316 µM) 72.6% | viability, T/C (second compound 30 µM, first compound 0.1 µM) 68.9% | viability, T/C (second compound 30 µM, first compound 0.316 µM) 64.5% | viability, T/C (second compound 30 µM, first compound 1 µM) 72.7%

CC(=O)Nc1cccc(-n2c(=O)n(C3CC3)c(=O)c3c(Nc4ccc(I)cc4F)n(C)c(=O)c(C)c32)c1
> 0.03 µM: IC50 (curve of compound)
inactive: viability, T/C (compound 94.9 pM) 105% and 111% | viability, T/C (compound 0.0003 µM) 101% and 94.9% | viability, T/C (compound 0.000949 µM) 91% and 88.8% | viability, T/C (compound 0.003 µM) 73.6% and 75.2% | viability, T/C (compound 0.00949 µM) 72.6% and 75.3% | viability, T/C (compound 0.03 µM) 63.9% and 60.4%

Cn1cnc2c(F)c(Nc3ccc(Br)cc3Cl)c(C(=O)NOCCO)cc21 + CC(C)NCC(C(=O)N1CCN(c2ncnc3c2C(C)CC3O)CC1)c1ccc(Cl)cc1
> 3 µM: IC50 [1] | IC50 [2] | IC50 [3] | IC50 [4] | IC50 [5]
inactive: viability, T/C (second compound 0.3 µM, first compound 0.00949 µM) 92.4% | viability, T/C (second compound 0.3 µM, first compound 0.03 µM) 82.1% | viability, T/C (second compound 0.3 µM, first compound 0.0949 µM) 80.9% | viability, T/C (second compound 0.3 µM, first compound 0.3 µM) 76.3% | viability, T/C (second compound 0.3 µM, first compound 0.949 µM) 68.9% | viability, T/C (second compound 0.3 µM, first compound 3 µM) 65.7% | viability, T/C (second compound 0.949 µM, first compound 0.00949 µM) 104% | viability, T/C (second compound 0.949 µM, first compound 0.03 µM) 97.4% | viability, T/C (second compound 0.949 µM, first compound 0.0949 µM) 81% | viability, T/C (second compound 0.949 µM, first compound 0.3 µM) 77.2% | viability, T/C (second compound 0.949 µM, first compound 0.949 µM) 67.9% | viability, T/C (second compound 0.949 µM, first compound 3 µM) 69.4% | viability, T/C (second compound 3 µM, first compound 0.00949 µM) 102% | viability, T/C (second compound 3 µM, first compound 0.03 µM) 99.8% | viability, T/C (second compound 3 µM, first compound 0.0949 µM) 80.2% | viability, T/C (second compound 3 µM, first compound 0.3 µM) 68.2% | viability, T/C (second compound 3 µM, first compound 0.949 µM) 72% | viability, T/C (second compound 3 µM, first compound 3 µM) 63.3% | viability, T/C (second compound 9.49 µM, first compound 0.00949 µM) 99.2% | viability, T/C (second compound 9.49 µM, first compound 0.03 µM) 91.7% | viability, T/C (second compound 9.49 µM, first compound 0.0949 µM) 83.9% | viability, T/C (second compound 9.49 µM, first compound 0.3 µM) 72% | viability, T/C (second compound 9.49 µM, first compound 0.949 µM) 70.5% | viability, T/C (second compound 9.49 µM, first compound 3 µM) 64.7% | viability, T/C (second compound 30 µM, first compound 0.00949 µM) 93.6% | viability, T/C (second compound 30 µM, first compound 0.03 µM) 89.7% | viability, T/C (second compound 30 µM, first compound 0.0949 µM) 85.4% | viability, T/C (second compound 30 µM, first compound 0.3 µM) 75.2% | viability, T/C (second compound 30 µM, first compound 0.949 µM) 69.5% | viability, T/C (second compound 30 µM, first compound 3 µM) 66.3%

CC(C)(C)c1nc(-c2cccc(NS(=O)(=O)c3c(F)cccc3F)c2F)c(-c2ccnc(N)n2)s1
inactive: viability, T/C (compound 0.0316 µM) 114% and 120% | viability, T/C (compound 0.1 µM) 109% | viability, T/C (compound 0.316 µM) 118% and 108% | viability, T/C (compound 1 µM) 108% and 104% | viability, T/C (compound 3.16 µM) 120% and 102% | viability, T/C (compound 10 µM) 101% and 98%
> 10 µM: IC50 (curve of compound)

CC(C)NCC(C(=O)N1CCN(c2ncnc3c2C(C)CC3O)CC1)c1ccc(Cl)cc1 (centres undefined)
inactive: viability, T/C (compound 0.3 µM) 101% [middle of 10 runs] | viability, T/C (compound 0.949 µM) 94% [middle of 10 runs] | viability, T/C (compound 3 µM) 83.6% [middle of 10 runs] | viability, T/C (compound 9.49 µM) 80.9% [middle of 10 runs] | viability, T/C (compound 30 µM) 85.8% [middle of 10 runs]
> 30 µM: IC50 (compound alone, run of 02/28/2020)

CC(C)n1nc(-c2ccc3oc(N)nc3c2)c2c(N)ncnc21
> 0.1 µM: IC50 (curve of compound)
inactive: viability, T/C (compound 0.000316 µM) 106% and 115% | viability, T/C (compound 0.001 µM) 99.2% and 110% | viability, T/C (compound 0.00316 µM) 97.8% and 105% | viability, T/C (compound 0.01 µM) 83.5% and 85.3% | viability, T/C (compound 0.0316 µM) 76% and 76.8% | viability, T/C (compound 0.1 µM) 69.8% and 74.7%

Source: PubChem BioAssay AID2060356 (Molecular Pharmacology Branch, DTP, NCI, 2025)
